Source: PubChem BioAssay (NCI)
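Cultured in 96-well plates, cells were exposed to test compound for 48 hours across five concentrations. Definition used: TGI = concentration required for complete inhibition of growth.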

Assays:
Assay in all cases: growth of human tumour cells (NCI), 48 h
[1] = test system: HOP-62 NSCLC
[2] = test system: OVCAR-5 ovarian
[3] = test system: HL-60(TB) leukemia
[4] = test system: EKVX NSCLC
[5] = test system: KM12 colon
[6] = test system: BT-549 breast
[7] = test system: OVCAR-4 ovarian
[8] = test system: CCRF-CEM leukemia
[9] = test system: A498 renal
[10] = test system: CAKI-1 renal
[11] = test system: HS 578T breast
[12] = test system: LOX IMVI melanoma
[13] = test system: RXF 393 renal
[14] = test system: HCC-2998 colon
[15] = test system: ACHN renal
[16] = test system: TK-10 renal
[17] = test system: MDA-N
[18] = test system: A549 NSCLC
[19] = test system: MALME-3M melanoma
[20] = test system: NCI-H226 lung
[21] = test system: UACC-257 melanoma
[22] = test system: MCF7 breast
[23] = test system: IGROV1 ovarian
[24] = test system: HOP-92 NSCLC
[25] = test system: OVCAR-3 ovarian
[26] = test system: DU-145 prostate
[27] = test system: MDA-MB-231 breast
[28] = test system: PC-3 prostate
[29] = test system: HT29 colon
[30] = test system: SF-539 CNS
[31] = test system: COLO 205 colon
[32] = test system: MDA-MB-435
[33] = test system: NCI/ADR-RES ovarian
[34] = test system: SK-MEL-2 melanoma
[35] = test system: RPMI-8226 leukemia
[36] = test system: SNB-75 CNS
[37] = test system: K-562 leukemia
[38] = test system: SF-295 CNS
[39] = test system: SN12C renal
[40] = test system: 786-0 renal
[41] = test system: MOLT-4 leukemia
[42] = test system: SNB-19 CNS
[43] = test system: SF-268 CNS
[44] = test system: M14 melanoma
[45] = test system: T-47D breast
[46] = test system: SK-MEL-28 melanoma
[47] = test system: U251 CNS
[48] = test system: SW-620 colon
[49] = test system: NCI-H522 lung
[50] = test system: HCT-15 colon
[51] = test system: HCT-116 colon
[52] = test system: NCI-H460 lung
[53] = test system: SK-OV-3 ovarian
[54] = test system: UACC-62 melanoma
[55] = test system: OVCAR-8 ovarian
[56] = test system: NCI-H23 lung
[57] = test system: SK-MEL-5 melanoma
[58] = test system: UO-31 renal

## O=C1c2[nH]c3ccccc3c2CCN2CCCCC12 (stereo unspecified)
[1]
  TGI: > 100 µM
[2]
  TGI: 44.1 µM
[3]
  TGI: 13.3 µM
[4]
  TGI: 53.7 µM
[5]
  TGI: 32.4 µM
[6]
  TGI: 65.8 µM
[7]
  TGI: 96.5 µM
[8]
  TGI: 57.3 µM
[9]
  TGI: 78.3 µM
[10]
  TGI: > 100 µM
[11]
  TGI: 71.8 µM
[12]
  TGI: 44.9 µM
[13]
  TGI: 61.2 µM
[14]
  TGI: 33.2 µM
[15]
  TGI: 46 µM
[16]
  TGI: 72.4 µM
[17]
  TGI: 39.6 µM
[18]
  TGI: 76.3 µM
[19]
  TGI: 46.5 µM
[20]
  TGI: 48.8 µM
[21]
  TGI: 39.5 µM
[22]
  TGI: > 100 µM
[23]
  TGI: 56 µM
[24]
  TGI: 41.8 µM
[25]
  TGI: 37.1 µM
[26]
  TGI: > 100 µM
[27]
  TGI: 41.3 µM
[28]
  TGI: 35.7 µM
[29]
  TGI: > 100 µM
[30]
  TGI: 40.2 µM
[31]
  TGI: 34.9 µM
[32]
  TGI: 31 µM
[33]
  TGI: 59 µM
[34]
  TGI: 36.3 µM
[35]
  TGI: 42.6 µM
[36]
  TGI: 73.5 µM
[37]
  TGI: 95.3 µM
[38]
  TGI: 90.2 µM
[39]
  TGI: > 100 µM
[40]
  TGI: 56.9 µM
[41]
  TGI: 56.7 µM
[42]
  TGI: 61.7 µM
[43]
  TGI: 78.9 µM
[44]
  TGI: 35.3 µM
[45]
  TGI: 74.9 µM
[46]
  TGI: > 100 µM
[47]
  TGI: 38.3 µM
[48]
  TGI: 65.9 µM
[49]
  TGI: 39.8 µM
[50]
  TGI: > 100 µM
[51]
  TGI: 54.6 µM
[52]
  TGI: > 100 µM
[53]
  TGI: > 100 µM
[54]
  TGI: 37 µM
[55]
  TGI: 65.9 µM
[56]
  TGI: 63.7 µM

## O=C1Nc2cc(Cl)ccc2C(=O)N2CCC[C@@H]12
[1]
  TGI: > 100 µM
[2]
  TGI: > 100 µM
[57]
  TGI: > 100 µM
[3]
  TGI: > 100 µM
[4]
  TGI: > 100 µM
[5]
  TGI: > 100 µM
[6]
  TGI: > 100 µM
[7]
  TGI: > 100 µM
[8]
  TGI: > 100 µM
[9]
  TGI: > 100 µM
[10]
  TGI: > 100 µM
[11]
  TGI: > 100 µM
[12]
  TGI: > 100 µM
[13]
  TGI: > 100 µM
[58]
  TGI: > 100 µM
[14]
  TGI: > 100 µM
[15]
  TGI: > 100 µM
[16]
  TGI: > 100 µM
[17]
  TGI: > 100 µM
[18]
  TGI: > 100 µM
[19]
  TGI: > 100 µM
[20]
  TGI: 98.2 µM
[21]
  TGI: > 100 µM
[22]
  TGI: > 100 µM
[23]
  TGI: > 100 µM
[24]
  TGI: > 100 µM
[26]
  TGI: > 100 µM
[27]
  TGI: > 100 µM
[28]
  TGI: > 100 µM
[29]
  TGI: > 100 µM
[31]
  TGI: > 100 µM
[32]
  TGI: > 100 µM
[33]
  TGI: > 100 µM
[34]
  TGI: > 100 µM
[35]
  TGI: > 100 µM
[36]
  TGI: > 100 µM
[37]
  TGI: > 100 µM
[38]
  TGI: > 100 µM
[39]
  TGI: > 100 µM
[40]
  TGI: > 100 µM
[42]
  TGI: > 100 µM
[43]
  TGI: > 100 µM
[44]
  TGI: > 100 µM
[45]
  TGI: > 100 µM
[46]
  TGI: > 100 µM
[47]
  TGI: > 100 µM
[48]
  TGI: > 100 µM
[49]
  TGI: > 100 µM
[50]
  TGI: > 100 µM
[51]
  TGI: > 100 µM
[52]
  TGI: > 100 µM
[53]
  TGI: > 100 µM
[54]
  TGI: > 100 µM
[55]
  TGI: > 100 µM
[56]
  TGI: > 100 µM
